Consider three compounds from PMC5619819, “A highly-sensitive high throughput assay for dynamin's basal GTPase activity” (PLoS ONE, 2017).

Assay [1] addresses T1, Dynamin-1 (Dyn1) (Homo sapiens, UniProt Q05193).
T1 construct: made in house; host or cells: Sf9 (Spodoptera frugiperda) insect cells
T1 sequence (Q05193 1-864): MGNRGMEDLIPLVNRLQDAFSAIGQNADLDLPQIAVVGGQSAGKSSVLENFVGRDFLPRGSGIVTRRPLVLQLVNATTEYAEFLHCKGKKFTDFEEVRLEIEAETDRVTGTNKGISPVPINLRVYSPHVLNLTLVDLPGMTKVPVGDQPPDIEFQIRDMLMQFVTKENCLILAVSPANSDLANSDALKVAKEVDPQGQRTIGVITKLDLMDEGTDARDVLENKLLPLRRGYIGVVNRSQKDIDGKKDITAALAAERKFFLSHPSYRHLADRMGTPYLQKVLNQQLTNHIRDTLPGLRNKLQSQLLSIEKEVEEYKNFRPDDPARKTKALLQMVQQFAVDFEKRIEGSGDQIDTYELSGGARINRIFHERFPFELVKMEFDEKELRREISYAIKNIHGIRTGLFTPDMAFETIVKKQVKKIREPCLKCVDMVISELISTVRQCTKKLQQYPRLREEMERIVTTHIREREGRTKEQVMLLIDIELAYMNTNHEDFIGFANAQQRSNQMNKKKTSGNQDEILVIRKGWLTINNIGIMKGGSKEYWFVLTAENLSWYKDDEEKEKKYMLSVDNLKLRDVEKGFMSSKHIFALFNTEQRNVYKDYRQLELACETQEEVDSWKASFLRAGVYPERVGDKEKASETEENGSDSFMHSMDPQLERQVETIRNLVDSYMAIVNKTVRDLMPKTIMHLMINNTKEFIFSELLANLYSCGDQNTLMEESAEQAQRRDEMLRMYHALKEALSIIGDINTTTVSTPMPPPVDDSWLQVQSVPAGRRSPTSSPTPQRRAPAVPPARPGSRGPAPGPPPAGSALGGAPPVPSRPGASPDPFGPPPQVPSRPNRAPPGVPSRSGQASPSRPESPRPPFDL
The assay can be described thus: Transcreener GDP fluorescence polarization assay, basal GTPase activity. The class given is biochemical. Particulars: for inhibition of basal GTPase activity (result in words): high salt (150 mM KCl), inhibitor 1 nM to 100 μM. On the procedure:
Dynamin-1 (Dyn1) was expressed in Sf9 (Spodoptera frugiperda, GIBCO-BRL, Gaithersburg, MD) insect cells and purified by affinity chromatography, as previously described. Nucleotide-free protein aliquots were stored in assay buffer containing 20 mM HEPES, 150 mM KCl, 1 mM EDTA, 1 mM EGTA and 1 mM DTT at pH 7.4. The aliquots were flash frozen in liquid nitrogen and stored in -80°C in 5% v/v glycerol. Prior to running assays, frozen aliquots of Dyn1 were thawed and centrifuged at 100,000 g for 15 minutes to remove any aggregates. Dyn1 concentration was determined by measuring its absorbance at 280 nm with a UV/Vis spectrophotometer (Beckman Coulter Inc.) using a molar absorptivity coefficient of 73,800 M^-1 cm^-1.
The Transcreener® GDP FP (BellBrook Labs) assay is an immune-competition assay based on a mouse monoclonal antibody that selectively binds Alexa633-conjugated GDP over GTP. The preformed Alexa633-GDP antibody complex is added at the end of the reaction, and the GDP generated displaces bound Alexa633 fluorescent tracer, resulting in a decrease in its far-red fluorescence polarization (FP). The assay detects GDP production with high sensitivity at low substrate concentrations and has been used to develop an HTS compatible assay for the enzymatic activity of ARFGAP [20]. Stocks of 5 mM GTP, 10x Stop & Detect Buffer B, 400 nM GDP Alexa633 Tracer, and 3100 μg/mL GDP antibody were purchased from BellBrook Labs (Madison, WI). Assays were performed in Corning 384-well plates at room temperature.
All assays were conducted in the endpoint format, which measures total GDP production after 60 minutes of incubation at room temperature. […] The plate was then read for fluorescence polarization in millipolarization units (mP) using an EnVision multi-modal microplate reader (PerkinElmer, Inc.). […]
For the confirmation screen and dose response curves, the data were analyzed by normalizing the sample GDP released to the control GDP released using the following equation: normalizedGTPaseactivity=sampleGDPreleased/controlGDPreleased×100 (4)

The target of assay [2] is T1, Dynamin-1 (Dyn1). The assay is described as follows: Lipid nanotube (NT)-stimulated GTPase activity, malachite green assay. Particulars: 100 nM Dyn1, 300 μM lipid nanotubes, 25 μM GTP, 37°C; read-out: IC50, inhibition of NT-stimulated GTPase activity of Dyn1. The class given is biochemical. On the procedure:
The lipid nanotube (NT)-stimulated malachite green assays were performed in 96-well plates at 37°C. The final reaction consisted of 100 nM Dyn1, 25 μM GTP, and 300 μM lipid nanotubes. The assay and reagent preparations were performed according to our published protocol. All general chemicals were purchased from Sigma-Aldrich (St. Louis, MO). Compounds tested in the malachite green assay were purchased from Chembridge and ChemDiv (both located in San Diego, CA).
Compound 24 was compared with the two commercially available dynamin inhibitors, Dynasore and Dyngo-4a, in a dose-response assay measuring inhibition of basal GTPase activity under high salt (150 mM KCl) conditions. The concentration of inhibitors ranged from 1 nM to 100 μM. […] Therefore, to more closely parallel previous studies we tested both commercial inhibitors in comparison to compound 24 for their effects on dynamin’s stimulated GTPase activity. Assays were performed in the presence of PI(4,5)P2-containing lipid nanotubes (NT), whose diameter (~ 20 nm) resembles the neck of an invaginated coated pit, using the malachite green assay.

The test system of a further assay is dynamin. To be noted: low salt, 20 nM dynamin; read-out: IC50, stimulated GTPase activity, sonicated PS liposomes; cited from earlier work.
The test system of assay [3] is triple dynamin-1, 2, and 3 knockout cells. The arrangement: method as in PMID 24046449. Particulars: cited from earlier work.

Several values for one entry are separate records, joined by “and”; a condition that tells them apart may be missing. Equal values may be shown once. Entries after “also recorded” stand apart in the source; their conditions may differ.

By IC50 is commonly meant the concentration at which inhibition is half-maximal. With `O=C(N/N=C/c1ccc(O)c(O)c1)c1cc2ccccc2cc1O` [Dynasore], at Dynamin-1 (Dyn1) [1], the “inhibition of basal GTPase activity (result in words)” value is recorded as “do not appear to inhibit basal GTPase activity even at high concentrations; also recorded: neither was able to inhibit basal GTPase activity”. Moreover, the values for the IC50 at Dynamin-1 (Dyn1) [2] and in the assay on dynamin were 83.5 µM and 0.4 µM, respectively. Also, the “inhibition of endocytosis (result in words)” value in assay [3] was “continue to inhibit endocytosis”.
As for `O=C(N/N=C/c1cc(O)c(O)cc1O)c1cc2ccccc2cc1O` [Dyngo-4a], the “inhibition of basal GTPase activity (result in words)” value at Dynamin-1 (Dyn1) [1] is reported as “do not appear to inhibit basal GTPase activity even at high concentrations; also recorded: neither was able to inhibit basal GTPase activity”. For the same compound, the IC50 at Dynamin-1 (Dyn1) [2] is 45.4 µM; with dynamin it was 12 µM. Besides, the “inhibition of endocytosis (result in words)” value in assay [3] is “continue to inhibit endocytosis”.
Turning to `CN(C)c1ccc(/C=C/C=C2/SC(=S)NC2=O)cc1` [compound 24], the IC50 was 0.58 µM and ~0.6 µM on Dynamin-1 (Dyn1) [1] (50 nM Dyn1, 10 μM GTP, 60 min, room temperature, 11-point dose response 1 nM to 100 μM, read-out: IC50, inhibition of basal GTPase activity of Dyn1); 6.4 µM and ~6 µM at Dynamin-1 (Dyn1) [2].
